Experimental findings from ChEMBL document CHEMBL4265976, “Synthesis, molecular docking and inhibition studies of novel 3-N-aryl substituted-2-heteroarylchromones targeting microtubule affinity regulating kinase 4 inhibitors” (Eur J Med Chem, 2018) are described below.

SMILES strings stand for the structures. Active and inactive are the calls of the source. No cut-off for these calls is given here.

Usually IC50 stands for the concentration needed to halve the response being measured.

Series [1] deals with T1, MAP/microtubule affinity-regulating kinase 4 (Homo sapiens, UniProt Q96L34).
T1 sequence (Q96L34 whole entry): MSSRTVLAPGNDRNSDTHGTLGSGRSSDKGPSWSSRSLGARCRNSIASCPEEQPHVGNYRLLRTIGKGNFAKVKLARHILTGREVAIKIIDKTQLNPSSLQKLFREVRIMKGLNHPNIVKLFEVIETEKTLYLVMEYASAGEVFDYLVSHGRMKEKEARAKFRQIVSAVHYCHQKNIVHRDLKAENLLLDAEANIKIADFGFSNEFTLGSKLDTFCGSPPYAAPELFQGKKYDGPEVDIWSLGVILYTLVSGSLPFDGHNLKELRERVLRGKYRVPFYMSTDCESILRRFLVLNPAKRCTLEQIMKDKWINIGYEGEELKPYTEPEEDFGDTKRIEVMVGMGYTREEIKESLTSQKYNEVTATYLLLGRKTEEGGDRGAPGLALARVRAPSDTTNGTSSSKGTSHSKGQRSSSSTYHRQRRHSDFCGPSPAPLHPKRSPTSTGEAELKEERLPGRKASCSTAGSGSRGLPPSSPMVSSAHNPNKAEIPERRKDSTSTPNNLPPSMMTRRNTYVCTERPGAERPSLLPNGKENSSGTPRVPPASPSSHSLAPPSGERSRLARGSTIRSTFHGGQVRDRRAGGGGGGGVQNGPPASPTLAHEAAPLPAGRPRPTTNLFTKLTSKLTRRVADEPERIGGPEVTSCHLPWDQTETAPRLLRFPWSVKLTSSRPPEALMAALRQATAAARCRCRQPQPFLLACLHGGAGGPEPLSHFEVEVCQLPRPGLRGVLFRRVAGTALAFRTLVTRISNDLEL
The series can be described thus: Inhibition of MARK4 (unknown origin) (59 to 368 residues) expressed in Escherichia coli M15 in presence of [gamma-32P]ATP by ATPase assay.

For series [2], the target named is T2, MAP/microtubule affinity-regulating kinase 4 (Homo sapiens) (UniProt Q96L34).
T2 sequence (whole entry): T1 sequence (Q96L34 whole entry)
The series can be described thus: Inhibition of MARK4 (unknown origin) (59 to 368 residues) expressed in Escherichia coli M15 3 to 10 uM by dot blot assay.

The target in series [3] is T2, MAP/microtubule affinity-regulating kinase 4 (Homo sapiens). The series can be described thus: Binding affinity to MARK4 (unknown origin) (59 to 368 residues) expressed in Escherichia coli M15 up to 10 uM by fluorescence based Stern-Volmer plot analysis.
For series [4], the system named is MCF7. Description: Antiproliferative activity against human MCF7 cells after 48 hrs by MTT assay. The class given is functional, cell-based. As to conditions: for IC50: MCF7, 48 h. Background: Formazan colour is commonly taken as a measure of viable cells.
Series [5] concerns HepG2. The series can be described thus: Antiproliferative activity against human HepG2 cells after 48 hrs by MTT assay. The class given is functional, cell-based. As to conditions: for IC50: HepG2, 48 h.
Series [6] can be described thus: Cytotoxicity against human HEK293 cells assessed as cell viability up to 200 uM after 72 hrs by MTT assay relative to control. The class given is cell-based. As to conditions: read-out: Activity.
In series [7] the test system is MCF7. Description: Induction of apoptosis in human MCF7 cells assessed as viable cells at IC50 after 24 to 48 hrs by Annexin V-FITC staining-based flow cytometric analysis relative to control. The series is classed as functional. (In general: In flow cytometry, cells or beads pass a laser one at a time.)
Series [8] deals with MCF7. Description: Induction of apoptosis in human MCF7 cells assessed as early apoptotic cells at IC50 after 24 to 48 hrs by Annexin V-FITC staining-based flow cytometric analysis (reference value: 0%). The series is classed as functional.
Series [9] relates to MCF7. The series can be described thus: Induction of apoptosis in human MCF7 cells assessed as late apoptotic cells at IC50 after 24 to 48 hrs by Annexin V-FITC staining-based flow cytometric analysis (reference value: 0%). The series is classed as functional.
Series [10] relates to MCF7. Description: Induction of apoptosis in human MCF7 cells assessed as necrotic cells at IC50 after 24 to 48 hrs by Annexin V-FITC staining-based flow cytometric analysis (reference value: 0%). The series is classed as functional.
In series [11] the test system is HepG2. Description: Induction of apoptosis in human HepG2 cells assessed as viable cells at IC50 after 24 to 48 hrs by Annexin V-FITC staining-based flow cytometric analysis relative to control. The series is classed as functional.
The subject of series [12] is HepG2. The series can be described thus: Induction of apoptosis in human HepG2 cells assessed as early apoptotic cells at IC50 after 24 to 48 hrs by Annexin V-FITC staining-based flow cytometric analysis (reference value: 0%). The class given is functional.
Series [13] has as its system HepG2. The series can be described thus: Induction of apoptosis in human HepG2 cells assessed as late apoptotic cells at IC50 after 24 to 48 hrs by Annexin V-FITC staining-based flow cytometric analysis (reference value: 0%). The class given is functional.
Series [14] concerns HepG2. Description: Induction of apoptosis in human HepG2 cells assessed as necrotic cells at IC50 after 24 to 48 hrs by Annexin V-FITC staining-based flow cytometric analysis (reference value: 0%). The class given is functional.
Series [15] addresses T2, MAP/microtubule affinity-regulating kinase 4 (Homo sapiens). Description: Inhibition of MARK4-mediated tau phosphorylation in human MCF7 cells at IC50 after 24 hrs by flow cytometric analysis. The class given is cell-based.
Series [16] concerns MCF7. The series can be described thus: Induction of ROS generation in human MCF7 cells at IC50 after 5 to 6 hrs by DCFDA staining based flow cytometric analysis. The class given is functional, cell-based.

In the case of `COc1ccc(Nc2c(-c3ccco3)oc3ccccc3c2=O)cc1`, the figures for the IC50 (in series [1]; in the series with MCF7 [4]; in the series on HepG2 [5]) were 5.56 µM, 16.2 µM and 19.1 µM, respectively. For the same compound, the inhibition result in series [2] and in series [15] was “Active” throughout. In addition, the result (in series [3]; in the series with MCF7 [16]) was Active. Further, the Activity entry was “Dose-dependent effect” with MCF7 [4]; “Dose-dependent effect” in the series on HepG2 [5]; 80.1% with MCF7 [7]; 18.7% in the series with MCF7 [8]; 1.21% with MCF7 [9]; 0.027% with MCF7 [10]. Besides, the Activity came to 87% in the series on HepG2 [11], 5.13% in the series on HepG2 [12], 4.79% in the series on HepG2 [13] and 3.12% in the series on HepG2 [14]. Also, in series [6], the viability at 72 h was 85%.
As to `O=c1c(Nc2ccc(I)cc2)c(-c2ccco2)oc2c(Cl)cc(Cl)cc12`, the IC50 in series [1] amounted to 1.98 µM; with MCF7 [4], 4.32 µM; in the series with HepG2 [5], 5.22 µM. The inhibition result in series [2] and in series [15] was “Active” in each case. In addition, the result (in series [3]; in the series with MCF7 [16]) was Active. Besides, the Activity entry in the series on MCF7 [4] is “Dose-dependent effect”; with HepG2 [5], “Dose-dependent effect”; with MCF7 [7], 70.1%; in the series on MCF7 [8], 27.9%; with MCF7 [9], 1.9%; in the series on MCF7 [10], 0.15%. For the same compound, the Activity in the series with HepG2 [11] was 82.3%; with HepG2 [12], 15.2%; with HepG2 [13], 2.56%; in the series with HepG2 [14] it was 0.013%. Also, the viability at 72 h in [6] was 85%.
In the case of `O=c1c(Nc2ccc([N+](=O)[O-])cc2)c(-c2ccco2)oc2c(Cl)cc(Cl)cc12`, the IC50 worked out at 2.12 µM in series [1], 3.22 µM in the series on MCF7 [4] and 6.45 µM in the series on HepG2 [5]. The inhibition entry in series [2] and in series [15] was “Active” each time. The result (in series [3]; with MCF7 [16]) was Active. For the same compound, the Activity entry was “Dose-dependent effect” in the series on MCF7 [4]; “Dose-dependent effect” in the series with HepG2 [5]; 55.8% in the series on MCF7 [7]; 26.5% in the series with MCF7 [8]; 15.9% in the series with MCF7 [9]; 1.72% in the series on MCF7 [10]. The Activity with HepG2 [11] was found to be 80.6%; in the series with HepG2 [12] it was 8.53%; with HepG2 [13], 6.54%; in the series with HepG2 [14] it was 4.33%. Further, the viability at 72 h in [6] was 85%.
